Measured values: the NIST ThermoML archive (doi:10.1021/acs.jced.7b00466)
Numbers after ± are expanded uncertainties.

Details: for viscosity / speed of sound / mass density: 102 kPa, Liquid; for viscosity: Concentric cylinders viscometry; for speed of sound: Frequency=3 MHz, Sing-around technique in a fixed-path interferometer; for mass density: Vibrating tube method; for surface tension liquid-gas: Pendant drop shape

Compound | viscosity (293.15 K) [mPa·s] | speed of sound (293.15 K) [m/s] | mass density (293.15 K) [kg/m3] | viscosity (303.15 K) [mPa·s] | speed of sound (303.15 K) [m/s] | mass density (303.15 K) [kg/m3] | viscosity (313.15 K) [mPa·s] | speed of sound (313.15 K) [m/s] | mass density (313.15 K) [kg/m3] | viscosity (323.15 K) [mPa·s] | speed of sound (323.15 K) [m/s] | mass density (323.15 K) [kg/m3] | viscosity (333.15 K) [mPa·s] | speed of sound (333.15 K) [m/s] | mass density (333.15 K) [kg/m3] | viscosity (343.15 K) [mPa·s] | mass density (343.15 K) [kg/m3] | also measured
CCCCCCCCCCCCCCCC [hexadecane] | 3.43 ± 0.02 | 1356.4 ± 1 | 773.42 ± 0.32 | 2.72 ± 0.02 | 1319 ± 1 | 766.47 ± 0.32 | 2.2 ± 0.02 | 1282.6 ± 1 | 759.55 ± 0.32 | 1.82 ± 0.01 | 1246.9 ± 1 | 752.63 ± 0.32 | 1.54 ± 0.01 | 1212 ± 1 | 745.71 ± 0.32 | 1.31 ± 0.01 | 738.8 ± 0.9 | surface tension liquid-gas (294 K): 27.2 ± 0.3 mN/m
CCCCc1ccccc1 [butylbenzene] | 1.06 ± 0.01 | 1352.8 ± 1 | 860.6 ± 0.19 | 0.915 ± 0.012 | 1314 ± 1 | 852.56 ± 0.19 | 0.801 ± 0.012 | 1275.8 ± 1 | 844.5 ± 0.19 | 0.708 ± 0.011 | 1238.2 ± 1 | 836.41 ± 0.19 | 0.631 ± 0.011 | 1201.4 ± 1 | 828.29 ± 0.19 | 0.566 ± 0.011 | 820.3 ± 0.5 | surface tension liquid-gas (294.4 K): 28.8 ± 0.3 mN/m
Cc1ccccc1 [toluene] | – | – | – | – | – | – | – | – | – | – | – | – | – | – | – | – | – | surface tension liquid-gas (293 K): 28.6 ± 0.3 mN/m
CCCCCCc1ccccc1 [hexylbenzene] | 1.68 ± 0.01 | 1374.7 ± 1.1 | 857.69 ± 0.7 | 1.41 ± 0.01 | 1337.3 ± 1.1 | 850.09 ± 0.7 | 1.2 ± 0.01 | 1300.5 ± 1.1 | 842.49 ± 0.7 | 1.03 ± 0.01 | 1264.3 ± 1.1 | 834.87 ± 0.7 | 0.901 ± 0.012 | 1228.8 ± 1.1 | 827.48 ± 0.7 | 0.794 ± 0.012 | 819.5 ± 2 | surface tension liquid-gas (294.1 K): 29.4 ± 0.4 mN/m
CCCCCCCCCCCC [dodecane] | 1.47 ± 0.02 | 1297.3 ± 1.3 | 748.79 ± 1.5 | 1.23 ± 0.01 | 1259.1 ± 1.3 | 741.54 ± 1.5 | 1.05 ± 0.01 | 1221.5 ± 1.3 | 734.25 ± 1.5 | 0.902 ± 0.012 | 1184.4 ± 1.3 | 726.94 ± 1.5 | 0.786 ± 0.012 | 1148 ± 1.3 | 719.59 ± 1.5 | 0.69 ± 0.012 | 712.2 ± 4.3 | surface tension liquid-gas (293.6 K): 25 ± 0.3 mN/m
CCCCC1CCCCC1 [butylcyclohexane] | 1.31 ± 0.01 | 1327.7 ± 1 | 799.33 ± 0.2 | 1.11 ± 0.01 | 1287.9 ± 1 | 791.82 ± 0.2 | 0.961 ± 0.012 | 1248.7 ± 1 | 784.28 ± 0.2 | 0.837 ± 0.012 | 1210.3 ± 1 | 776.7 ± 0.2 | 0.736 ± 0.011 | 1172.6 ± 1 | 769.09 ± 0.2 | 0.653 ± 0.011 | 761.4 ± 0.5 | surface tension liquid-gas (294.5 K): 26.6 ± 0.3 mN/m
